Experiment [1] relates to MCF-7 cells. Briefly: Inhibition of MCF-7 cell proliferation (counting of vital cells). The conditions noted are these: 10^-7 M, 10^-8 M, 10^-9 M; cell counts after 3, 6 and 9 days; compared with DHT and control. It counts as cell-based, human. How it is done: MCF-7 cells were grown in RPMI 1640 medium at 37° C. to a cell number of about 1*10^5 cells/ml. Then, in quadruple identical MCF-7 cell samples, there were added either dihydrotestosterone (DHT) or 4-hydroxytestosterone (4-OHT), to obtain different concentrations thereof, namely 10^−7 M, 10^−8 M or 10^−9 M, and further growth of cells were determined by counting of vital cells. During the course of incubation at 37° C., cell counting were performed after 3, 6 and 9 days. For control, growth of MCF-7 cells were determined without addition of an active agent.
The results on an inhibition of MCF-7 cell proliferation are shown in FIGS. 1A, 1B and 1C for the compound concentrations of 10^−7 M, 10^−8 M and 10^−9 M of either DHT or 4-OHT, respectively, and compared with the control.

In experiment [2] the test system is malign breast carcinoma (C. mammae). Briefly: Double blind clinical test, topical cream, patients with malign breast carcinoma. It counts as in vivo, human. The conditions noted are these: for Clinical Remission: topical cream once a day. On the procedure:
(§1) Double blind clinical tests were conducted with a group of 10 female patients. In this clinical testing, particular attention was paid to hormone receptor statuses of patients' target breast cancer tissue regarding progesterone receptor (PR) and in particular regarding estrogen receptor (ER); The cancers of the patients were assumed to be predominantly androgen receptor (AR) positive. Among this group, six patients had histologically ascertained malign breast carcinoma (C. mammae). […] In a sixth patient, the presence of a malign breast carcinoma was ascertained, but the amount of cancer tissue was too low to determine receptor status.
(§2) All 10 female patients were topically and locally treated using 4-hydroxytestosterone as active agent, by administering of a cream as described in Example 2 locally to target skin portions of the breasts. After continuing daily topical administration once a day during an administration period of 3 months, clinical investigations on therapeutic effects were performed.
The results of the 6 patients having malign breast carcinoma are shown in the following Table 1, together with the receptor status determined for patient nos. 1 to 5.

The test system of experiment [3] is normal or mastopathic breast tissue. Nature of the experiment: Double blind clinical test, topical cream, patients with non-malign breast tissue. It counts as in vivo, human. The conditions noted are these: 4 patients with non-malign disease states, topical administration. How it is done: as §1, §2

Structures are written as SMILES.

From patent US9114163B2, “Medication against breast cancer and related diseases” (MaBel GmbH, priority 2006, dated 2015) come the findings set out here.

In the case of `C[C@]12CC[C@H]3[C@@H](CCC4=C(O)C(=O)CC[C@@]43C)[C@@H]1CC[C@@H]2O` [4-hydroxytestosterone, 4,17β-dihydroxyandrost-4-ene-3-one], the “inhibitory effect on MCF-7 cell proliferation” value in experiment [1] was “significantly enhanced inhibitory effect”. The “Clinical Remission” value is reported as “yes” in experiment [2] (Patient # 1, ER 0, PR 0, Her2neu 0, 3 months); “yes” in experiment [2] (Patient # 3, ER 0, PR 0, Her2neu 0, 3 months); “yes” in experiment [2] (Patient # 6, receptor status not determined, 3 months). In experiment [2] (clinical study, ER negative tumours, topical cream, 3 months), the “treatment of ER negative cancer cells” value is given as “effectively treated”. In experiment [2] (clinical study, topical cream, 3 months), the “efficacy in shrinking cancerous tissues” value was “excellent efficacy in shrinking cancerous tissues”. For the same compound, the “patients with noticeable remission of breast cancer tissues as determined by mammography” value in experiment [2] (of 6 patients with malign breast carcinoma, those so far subjected to post-treatment investigation, 3 months topical) is “three”. Besides, the “tissue reduction of normal or mastopathic appearing tissues” value in experiment [3] is given as “clear tendency for tissue reduction”.
